{"source": "patent US20020045566A1", "about": "“Selective maxi-K potassium channel openers functional under conditions of high intracellular calcium concentration, methods and uses thereof” (priority 2000, published 2002)", "key": {"[1]": {"target": "T1, human brain maxi-K channel α-subunit (hSlo) (Homo sapiens, UniProt Q12791)", "T1 construct": "expressed in transfected cells; host or cells: HEK-293, stably transfected (pcDNA3, G418 selection)", "T1 sequence (Q12791 1-1178 isoform Q12791-5)": "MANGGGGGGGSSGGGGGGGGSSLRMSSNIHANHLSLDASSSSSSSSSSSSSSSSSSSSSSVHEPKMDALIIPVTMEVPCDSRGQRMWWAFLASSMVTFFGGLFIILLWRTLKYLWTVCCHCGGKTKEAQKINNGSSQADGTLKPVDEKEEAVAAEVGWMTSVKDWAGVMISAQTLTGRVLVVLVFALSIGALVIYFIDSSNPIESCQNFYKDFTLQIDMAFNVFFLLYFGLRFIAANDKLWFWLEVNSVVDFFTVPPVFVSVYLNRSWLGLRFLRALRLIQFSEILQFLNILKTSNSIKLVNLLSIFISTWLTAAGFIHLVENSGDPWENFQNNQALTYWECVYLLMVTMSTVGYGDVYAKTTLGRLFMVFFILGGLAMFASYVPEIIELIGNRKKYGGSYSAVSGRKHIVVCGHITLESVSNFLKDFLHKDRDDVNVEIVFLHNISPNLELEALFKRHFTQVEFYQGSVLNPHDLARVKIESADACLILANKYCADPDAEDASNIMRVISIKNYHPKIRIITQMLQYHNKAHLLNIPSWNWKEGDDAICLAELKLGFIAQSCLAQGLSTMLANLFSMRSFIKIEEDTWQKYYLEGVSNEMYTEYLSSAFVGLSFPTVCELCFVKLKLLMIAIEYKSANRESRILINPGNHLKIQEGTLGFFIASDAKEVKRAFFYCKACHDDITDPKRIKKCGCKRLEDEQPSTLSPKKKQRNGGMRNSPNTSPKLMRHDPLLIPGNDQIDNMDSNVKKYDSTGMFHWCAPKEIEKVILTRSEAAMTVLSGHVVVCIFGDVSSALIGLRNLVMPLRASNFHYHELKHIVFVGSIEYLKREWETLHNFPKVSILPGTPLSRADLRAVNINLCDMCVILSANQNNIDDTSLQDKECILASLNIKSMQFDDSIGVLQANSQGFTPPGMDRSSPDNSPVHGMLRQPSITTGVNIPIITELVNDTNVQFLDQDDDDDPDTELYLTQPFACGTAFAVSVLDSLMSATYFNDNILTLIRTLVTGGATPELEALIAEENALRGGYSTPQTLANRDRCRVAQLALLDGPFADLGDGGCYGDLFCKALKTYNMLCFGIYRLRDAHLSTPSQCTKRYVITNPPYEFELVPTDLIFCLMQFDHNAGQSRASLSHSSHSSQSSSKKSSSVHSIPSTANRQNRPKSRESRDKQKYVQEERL", "test": "whole-cell patch-clamp of hSlo-mediated outward currents in transfected HEK-293 cells", "type": "cell-based", "settings": "for effect on hSlo-mediated current amplitudes: BMS-A at 1 μM", "protocol": "HEK-293 cells were transfected with 1-2 μg of pcDNA3 expression plasmid containing hSlo α-subunit cDNA (S. I. Dworetzky et al., 1994, Brain Res. Mol. Brain Res., 27:189-193) using lipofectamine (Gibco) according to the manufacturer's protocol. Cells stably transfected with hSlo were selected in medium supplemented with 0.5 mg/ml Geneticin (G418; Sigma). Transfected HEK-293 cells were grown in Minimum Essential Medium (MEM; Gibco) supplemented with 10% fetal calf serum and G418 at 37° C. in a humidified atmosphere of 5% CO2 and 95% […]. Cells were plated on fibronectin-coated glass cover slips in 35 mm culture dishes.\nOutward K^+-mediated currents were examined using standard whole-cell patch-clamp techniques (P. O. Hamill et al., 1981, Pflugers Arch., 391:85-100). Records were filtered at 2 kHz prior to digitization at 10 or 20 kHz. The bathing solution contained the following components: NaCl, 145 mM; KCl, 3 mM; CaCl2, 2.5 mM; MgCl2 1 mM; HEPES, 10 mM; pH 7.4. The recording pipettes were pulled from thick-walled borosilicate glass (2-4 Mω in bathing solution), fire polished and filled with a solution containing: KCl 140 mM; MOPS, 20 mM; EGTA, 1.0 mM; pH 7.2, with CaCl2 adjusted to produce the required [Ca^2+]free (determined using the EQCAL program (Biosoft, Cambridge) incorporating the methods of A. Fabiato and F. Fabiato, 1995, J. Physiol., Paris. 75:463-505.\nStimulus generation and data acquisition were controlled by either an Axopatch 200 amplifier or an EPC 9 amplifier, and the Pulse program suite. Data were stored and analyzed off-line. The cell holding potential was −100 mV for experiments with 2.5 μM [Ca^2+]i, and −80 or […] for the remaining Ca^2+ concentrations (1 μM, 250 nM and 50 nM). A series of 10 mV depolarizing voltage steps (100 to 200 ms) appropriate to the [Ca^2+]i was applied to evoke a family of outward currents. Series resistance was ≦6Mω before 80% compensation. Currents were measured at steady state near the end of the voltage pulse.\nUsing the whole-cell voltage-clamp technique (R. Penner, 1995, “A Practical Guide to Patch Clamping”; In: Single Channel Recording, 2nd Edition, (Eds. B. Sakmann and E. Neher), Plenum Press, New York, pp. 3-30), hSlo-mediated outward currents were recorded with pipettes containing different concentrations of Ca^2+ (i.e., [Ca^2+]free=50 nM, 1 μM or 2.5 μM). Clamped cells were exposed to 5 μM of the fluoro-oxindole opener compound BMS-204352, or the chloro-oxindole opener compound BMS-225113, as described in Examples 1.\nFor outside-out and whole cell patch analyses, the solutions used are normal extracellular Na^+ solution containing (in mM): NaCl, 145; KCl, 3; CaCl2, 2.5; MgCl2, 1; HEPES, 10; ±glucose, 10; pH 7.4. Intracellular and extracellular medium for inside-out patches, or pipette solution for whole-cell patch, comprise (in mM): KCl, 140; MOPS, 20; EGTA, 1.0; pH 7.2 CaCl2 adjusted to produce the required [Ca^2+]free (determined using the EQCAL program; Biosoft, Cambridge). The cell holding potential for whole-cell recordings is −80 or −60 mV and depolarizing voltage steps appropriate to the internal Ca^2+ concentration are applied (at high intracellular Ca^2+ seals become unstable at higher clamp voltages, and are stable at lower voltages for shorter periods).\nThis example describes experiments that were conducted to determine the effects of intracellular Ca^2+ concentration ([Ca^2+]i) and the use of the BMS-A compound (see U.S. Pat. No. 5,869,509, Example 82), versus a known benzimidazolone compound called NS-1619 [D. Strbaek et al., 1996, Neuropharmacology, 35:903-914 and M. McKay et al., 1997, J. Neurophysiology, 71:1873], on whole-cell currents in HEK-293 cells genetically engineered to express a human brain hSlo α-subunit. For these experiments, the cell holding potential was either −80 or −100 mV and a series of 10 mV depolarizing voltage steps appropriate to the [Ca^2+]i, was applied. […]"}, "cortical infarct volume [2]": {"system": "cortical infarct volume", "test": "permanent MCA occlusion in SHR rat, MRI", "type": "in vivo, spontaneously hypertensive rats (SHR)", "settings": "0.3 mg/kg bolus IV 2 hours after occlusion onset; at 5.5 and 24 hours after occlusion"}, "dopamine D3 receptor": {"target": "T2, dopamine D3 receptor (Homo sapiens, UniProt P35462)", "T2 construct": "PanLabs (contract screen)", "T2 sequence (P35462 whole entry)": "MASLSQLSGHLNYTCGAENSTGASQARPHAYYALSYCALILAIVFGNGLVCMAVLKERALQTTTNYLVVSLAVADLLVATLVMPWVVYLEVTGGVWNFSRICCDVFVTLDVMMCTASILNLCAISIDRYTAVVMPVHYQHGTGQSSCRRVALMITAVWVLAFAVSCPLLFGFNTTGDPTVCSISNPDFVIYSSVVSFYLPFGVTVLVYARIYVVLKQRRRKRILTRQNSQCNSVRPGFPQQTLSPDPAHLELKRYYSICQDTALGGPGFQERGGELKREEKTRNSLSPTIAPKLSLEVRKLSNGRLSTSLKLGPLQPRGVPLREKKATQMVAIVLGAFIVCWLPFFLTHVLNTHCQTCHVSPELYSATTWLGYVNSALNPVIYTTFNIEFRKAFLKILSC", "test": "[3H]spiperone binding, PanLabs screen", "settings": "initial test", "from_the_text": "(§1) BMS-204352 was also examined against a binding screen of over 50 receptors and enzyme systems (PanLabs ProfilingScreen® and DiscoveryScreen®). These systems include representatives of most G-protein coupled receptor families, ligand-gated ion channel families, as well as some voltage-gated ion channel binding sites such as the dihydropyridine receptor of L-type Ca^2+ channels. […] The significance of modest inhibition of σ1 ligand binding is unknown."}, "[3]": {"test": "teratogenicity in rabbits", "type": "in vivo", "protocol": "(§2) BMS-204352 has an encouraging preclinical safety profile. […] In single- and multiple-dose studies unaffected by drug at doses at least 3×higher than the highest cytotoxic target organ changes following IV administration for 1 month at doses up to 10 mg/kg/day (rats) and for 10 days at doses up to 20 mg/kg/day (dogs)."}, "[4]": {"test": "genotoxicity in vitro and in vivo", "protocol": "as §2"}, "cortical infarct volume [5]": {"system": "cortical infarct volume", "test": "PUM,PIC,TCC model of acute stroke in Wistar normotensive rat", "type": "in vivo", "settings": "administered 2 hours post-occlusion", "protocol": "Permanent focal occlusion of the proximal middle cerebral artery (MCA) is performed using a modified version of the method originally developed by A. Tamura et al. (1981, J. Cerebr. Blood Flow Metab., 1:53-60). In the permanent unilateral MCA, permanent ipsilateral common carotid arteries (CCA) and transient contralateral CCA (PUM,PIC,TCC model), normotensive male Wistar rats are anesthetized with a combination of ketamine (40 mg/kg, i.m.) and xylazine (4.5 mg/kg, i.m.). After exposure of the left MCA via the subtemporal approach, a 2 mm section of the artery is electrocauterized and severed. Within 5 minutes, both CCA are exposed and occluded. […]\nThe contralateral temporary CCA occlusion reduces collateral flow sufficiently to allow for consistent, large cortical infarcts (S. Brint et al., 1988, Cerebr. Blood Flow Metab., 8:474-485). […] Animals are maintained throughout at 37° C. and monitored by means of a rectal probe. At 24 hours after the occlusion, animals are sacrificed and brains are removed and evaluated by triphenyltetrazolium chloride (TTC) staining to determine the area of infarct. Brain slices are photographed and infarct volumes determined with the assistance of computerized image analysis. Data are analyzed using ANOVAs and appropriate post-hoc tests (Dunnett's)."}, "[6]": {"system": "Ca^2+-activated chloride (Cl^−) channels (native oocyte channels)", "test": "ion channel specificity, Cl- currents (electrophysiology)", "type": "cell-based, Xenopus", "settings": "native oocyte Ca2+-activated Cl- channels", "protocol": "(§3) To determine the specificity of the effects of the opener compounds, including BMS-204352, on maxi-K potassium channels, the compounds were tested against a representative sample of cloned and native ion channels expressed in Xenopus oocytes and clonal cell lines and were assayed using standard electrophysiological techniques readily known to and practiced by those having skill in the art. These included voltage-dependent potassium channels (Kv1.3, Kv1.5, Kv2.1), Ca^2+-activated chloride (Cl^−) channels (native oocyte channels), the cystic fibrosis transmembrane conductance regulator Cl^− channel (CFTR) and Ca^2+ currents (native GH3 cell Ca^2+ current)."}, "[7]": {"system": "voltage-dependent potassium channels (Kv1.3, Kv1.5, Kv2.1)", "test": "ion channel specificity, Kv currents (electrophysiology)", "type": "cell-based", "protocol": "as §3"}, "[8]": {"test": "cardiovascular safety in rats", "type": "in vivo", "settings": "doses at least 3× higher than the highest neuroprotective dose of 1 mg/kg IV", "protocol": "as §2"}, "[9]": {"test": "brain penetrance and pharmacokinetics after IV administration in rat", "type": "in vivo", "from_the_text": "The ischemic penumbra is an area of low vascular perfusion. For a neuroprotective agent to reach ischemic neurons at therapeutic doses following the onset of a stroke, it should enter the brain at very high levels."}, "σ1": {"target": "T3, σ1 (Homo sapiens, UniProt Q99720)", "T3 construct": "PanLabs (contract screen)", "T3 sequence (Q99720 whole entry)": "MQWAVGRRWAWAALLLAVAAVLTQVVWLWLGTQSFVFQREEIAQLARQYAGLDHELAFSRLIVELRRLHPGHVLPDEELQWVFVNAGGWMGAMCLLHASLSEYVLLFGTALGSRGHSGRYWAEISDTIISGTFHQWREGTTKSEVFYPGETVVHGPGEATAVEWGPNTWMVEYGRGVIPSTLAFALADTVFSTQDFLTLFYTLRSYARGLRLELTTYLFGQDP", "test": "[3H](+)pentazocine binding, PanLabs screen", "from_the_text": "as §1"}, "[10]": {"test": "cardiovascular safety in anesthetized and conscious dogs", "type": "in vivo", "settings": "doses at least 3× higher than 1 mg/kg IV", "protocol": "as §2"}, "[11]": {"system": "native GH3 cell Ca^2+ current", "test": "ion channel specificity, native Ca2+ currents", "type": "cell-based", "settings": "at 1 and 10 μM; similar reductions due to current rundown in control cells", "protocol": "as §3"}, "teratogenicity in rats": {"test": "teratogenicity in rats", "type": "in vivo", "protocol": "as §2"}, "cortical infarct volume [12]": {"system": "cortical infarct volume", "test": "permanent MCA occlusion in SHR rat", "type": "in vivo, spontaneously hypertensive rats (SHR)", "settings": "administered 2 hours following occlusion onset, doses neuroprotective at earlier time points"}}, "data": [{"smiles": "COc1ccc(Cl)cc1C1(Cl)C(=O)Nc2cc(C(F)(F)F)ccc21", "note": "(racemic) [BMS-225113, (±)-(5-chloro-2-methoxyphenyl)1,3-dihydro-3-chloro-6-(trifluoromethyl)-2H-indol-2-one]", "values": [{"measurement": "effect on hSlo-mediated currents", "setting": "[1]; compound 5 μM, [Ca2+]i 50 nM, 250 nM, 1 μM or 2.5 μM", "value": "significant increases only at the highest concentrations of Ca^2+ (1 μM and 2.5 μM)"}, {"measurement": "effect on maxi-K currents", "setting": "[1]; compound 10 μM, [Ca2+]i 250 nM, 1.0 μM, 2.5 μM (FIG. 3A)", "value": "greater increases in maxi-K currents under conditions of higher [Ca^2+]i"}]}, {"smiles": "COc1ccc(Cl)cc1C1(F)C(=O)Nc2cc(C(F)(F)F)ccc21", "note": "(racemic) [Compound 1, (±)-(5-Chloro-2-methoxyphenyl)-1,3-dihydro-3-fluoro-6-(trifluoromethyl)-2H-indol-2-one]", "values": [{"measurement": "cortical infarct volume (MRI)", "setting": "cortical infarct volume [2]", "value": "significant reduction in cortical infarct volume"}]}, {"smiles": "COc1ccc(Cl)cc1[C@]1(F)C(=O)Nc2cc(C(F)(F)F)ccc21", "note": "[BMS-204352, (3S)-(+)-(5-Chloro-2-methoxyphenyl)-1,3-dihydro-3-fluoro-6-(trifluoromethyl)-2H-indol-2-one]", "values": [{"measurement": "inhibition at 10 µM", "setting": "dopamine D3 receptor", "value": 74, "unit": "%"}, {"measurement": "teratogenicity", "setting": "[3]", "value": "not teratogenic"}, {"measurement": "genotoxicity", "setting": "[4]", "value": "not genotoxic"}, {"measurement": "maximum reduction of cortical infarct volume", "setting": "cortical infarct volume [5]", "value": 41, "unit": "%"}, {"measurement": "typical reductions of cortical infarct volume", "setting": "cortical infarct volume [5]", "value": "20-30%"}, {"measurement": "effect on Cl- currents", "setting": "[6]", "value": "no significant effect"}, {"measurement": "effect on Kv currents", "setting": "[7]", "value": "no significant effect"}, {"measurement": "heart rate and mean arterial blood pressure", "setting": "[8]", "value": "unaffected"}, {"measurement": "Tmax", "setting": "[9]; 5 mg/kg, rat brain, IV administration", "value": 15, "unit": "min"}, {"measurement": "Cmax", "setting": "[9]; brain, rat, 5 mg/kg IV bolus dose", "value": "> 10000", "unit": "ng/g"}, {"measurement": "brain half life", "setting": "[9]; rat, IV", "value": 114, "unit": "min"}, {"measurement": "plasma half life", "setting": "[9]; rat, IV", "value": 96, "unit": "min"}, {"measurement": "ratio of brain to plasma of the total compound detected", "setting": "[9]; rat, over an 8 hour period", "value": 9.6}, {"measurement": "inhibition at 10 µM", "setting": "σ1", "value": 54, "unit": "%"}, {"measurement": "heart rate and mean arterial blood pressure", "setting": "[10]", "value": "unaffected"}, {"measurement": "reduction of native Ca2+ current", "setting": "[11]", "value": "15-16%"}, {"measurement": "teratogenicity", "setting": "teratogenicity in rats", "value": "not teratogenic"}]}, {"smiles": "O=c1oc(-c2ccc(C(F)(F)F)cc2)nn1Cc1cc(Cl)ccc1O", "note": "[BMS-A, 3-[(5-chloro-2-hydroxyphenyl)methyl]-5-[4-(trifluoromethyl)phenyl]-1,3,4-oxadiazol-2-(3H)-one]", "values": [{"measurement": "effect on hSlo-mediated current amplitudes", "setting": "[1]; [Ca2+]i 50 nM", "value": "decreased current amplitudes over a wide range of voltages"}, {"measurement": "effect on hSlo-mediated current amplitudes", "setting": "[1]; [Ca2+]i 2.5 μM", "value": "increased hSlo-mediated current amplitudes at the highest voltages"}]}, {"smiles": "CCc1cccc(N(C)C(N)=Nc2cccc3ccccc23)c1", "note": "[CNS-1102]", "values": [{"measurement": "neuroprotection", "setting": "cortical infarct volume [12]", "value": "ineffective"}]}, {"smiles": "C[C@]12N[C@H](Cc3ccccc31)c1ccccc12", "note": "[MK-801]", "values": [{"measurement": "neuroprotection", "setting": "cortical infarct volume [12]", "value": "ineffective"}]}, {"smiles": "O=c1[nH]c2cc(C(F)(F)F)ccc2n1-c1cc(C(F)(F)F)ccc1O", "note": "[NS-1619, reference compound]", "values": [{"measurement": "effect on hSlo-mediated current amplitudes", "setting": "[1]; [Ca2+]i 50 nM", "value": "increasing the hS/omediated current amplitudes at upper voltages"}, {"measurement": "effect on hSlo-mediated current amplitudes", "setting": "[1]; [Ca2+]i 2.5 μM", "value": "increasing the hS/omediated current amplitudes at upper voltages"}]}]}
